Assay results published in patent publication US12174198B2, “Methods of characterizing condensate-associated characteristics of compounds and uses thereof” (Dewpoint Therapeutics, Inc., priority 2019, dated 2024).
Where a name gives a salt, the structure may show the parent alone.

Biological target: T1, PGL-3 condensates (Caenorhabditis elegans, UniProt G5EBV6)
T1 sequence (G5EBV6 1-693): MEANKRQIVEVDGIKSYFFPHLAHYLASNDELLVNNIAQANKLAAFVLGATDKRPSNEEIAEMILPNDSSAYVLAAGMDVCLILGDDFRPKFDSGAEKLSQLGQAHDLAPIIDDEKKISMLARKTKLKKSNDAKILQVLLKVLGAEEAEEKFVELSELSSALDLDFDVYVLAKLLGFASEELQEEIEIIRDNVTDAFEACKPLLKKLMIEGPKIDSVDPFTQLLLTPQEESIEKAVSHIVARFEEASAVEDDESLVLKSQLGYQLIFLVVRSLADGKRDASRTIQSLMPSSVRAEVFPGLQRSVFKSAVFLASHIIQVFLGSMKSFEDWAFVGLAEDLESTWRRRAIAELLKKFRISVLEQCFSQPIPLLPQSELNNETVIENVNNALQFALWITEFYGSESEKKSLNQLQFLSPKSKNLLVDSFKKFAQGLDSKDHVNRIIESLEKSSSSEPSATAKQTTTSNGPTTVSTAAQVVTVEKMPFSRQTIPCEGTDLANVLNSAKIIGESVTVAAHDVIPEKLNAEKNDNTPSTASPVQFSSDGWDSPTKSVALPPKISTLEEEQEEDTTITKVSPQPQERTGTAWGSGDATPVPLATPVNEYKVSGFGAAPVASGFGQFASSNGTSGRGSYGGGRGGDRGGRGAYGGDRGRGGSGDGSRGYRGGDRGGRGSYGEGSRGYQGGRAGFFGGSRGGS
Assay: Fluorescence imaging of dye partitioning in PGL-3 condensates (I-in, I-out)
Format: physicochemical
Conditions: for Ratio of intensity inside:outside PGL-3 Condensates Day 1 / Ratio of intensity inside:outside PGL-3 Condensates Day 2 / Ratio of intensity inside:outside PGL-3 Condensates Average: I-in:I-out; for Ratio of intensity inside:outside PGL-3 Condensates Day 1 / Ratio of intensity inside:outside PGL-3 Condensates Day 2 / Ratio of intensity inside:outside PGL-3 Condensates Average / Intensity Inside with Dye Average / Intensity Inside with Dye 1 / Intensity Inside with Dye 2 / Intensity Inside with Dye 3 / Intensity Outside with Dye Average / Intensity Outside with Dye 1 / Intensity Outside with Dye 2 / Intensity Outside with Dye 3: 10 μM dye; for Ratio of intensity inside:outside PGL-3 Condensates Average: average of two days; for Intensity Inside with Dye Average / Intensity Inside with Dye 1 / Intensity Inside with Dye 2 / Intensity Inside with Dye 3 / Intensity Inside Dye-No Dye: inside PGL-3 condensate; for Intensity Inside with Dye Average / Intensity Inside with Dye 1 / Intensity Inside with Dye 2 / Intensity Inside with Dye 3 / Intensity Outside with Dye Average / Intensity Outside with Dye 1 / Intensity Outside with Dye 2 / Intensity Outside with Dye 3: 5 μM protein; for Intensity Inside with Dye Average / Intensity Outside with Dye Average: average of three images; for Intensity Inside with Dye Average / Intensity Inside with Dye 1 / Intensity Inside with Dye 2 / Intensity Inside with Dye 3 / Intensity Inside Dye-No Dye / Intensity Outside with Dye Average / Intensity Outside with Dye 1 / Intensity Outside with Dye 2 / Intensity Outside with Dye 3 / Intensity Outside (Dye-No Dye): one day of experiments; for Intensity Inside with Dye 1 / Intensity Outside with Dye 1: image 1; for Intensity Inside with Dye 2 / Intensity Outside with Dye 2: image 2; for Intensity Inside with Dye 3 / Intensity Outside with Dye 3: image 3; for Intensity Inside Dye-No Dye / Intensity Outside (Dye-No Dye): background corrected; for Intensity Outside with Dye Average / Intensity Outside with Dye 1 / Intensity Outside with Dye 2 / Intensity Outside with Dye 3 / Intensity Outside (Dye-No Dye): outside PGL-3 condensate
In short: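 Partitioning read by spinning-disk confocal imaging (60× oil, dye-specific exposure 1-1000 ms) of condensates formed from 5 μM protein (FUS-SNAP or untagged PGL-3) plus 10 μM dye, 75 mM KCl, 1% DMSO, pH 7.25. Background-subtracted intensities inside and beside one condensate per image, three images averaged.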

Row | SMILES | Ratio of intensity inside:outside PGL-3 Condensates Day 1 | Ratio of intensity inside:outside PGL-3 Condensates Day 2 | Ratio of intensity inside:outside PGL-3 Condensates Average | Intensity Inside with Dye Average | Intensity Inside with Dye 1 | Intensity Inside with Dye 2 | Intensity Inside with Dye 3 | Intensity Inside Dye-No Dye | Intensity Outside with Dye Average | Intensity Outside with Dye 1 | Intensity Outside with Dye 2 | Intensity Outside with Dye 3 | Intensity Outside (Dye-No Dye)
1 | O=C([O-])c1ccccc1C1=c2cc3c4c(c2Oc2c1cc1c5c2CCCN5CCC1)CCC[N+]=4CCC3 [Dye 17, Rhodamine 101 inner salt] | 1.8 | 1.9 | 1.9 | 13067.5 | 12579.6 | 14061.0 | 12561.8 | 12966.0 | 7117.9 | 7184.0 | 7157.1 | 7012.6 | 7016.4
2 | O=C1OC2(c3ccc(O)cc3Oc3cc(O)ccc32)c2ccccc21 [Dye 6, Fluorescein] | 1.0 | 1.0 | 1.0 | 4402.0 | 4585.4 | 4501.5 | 4119.2 | 4255.5 | 4166.2 | 4395.6 | 4190.8 | 3912.1 | 4060.8
3 | N#CC1=c2cc3c4c(c2Oc2c1cc1c5c2CCCN5CCC1)CCC[N+]=4CCC3 [Dye 18, Rhodamine 800] | 3.4 | 2.4 | 2.9 | 730.8 | 714.9 | 700.1 | 777.4 | 604.6 | 309.4 | 301.3 | 294.6 | 332.2 | 178.7
4 | CCN(CC)c1ccc2c(-c3ccccc3C(=O)O)c3ccc(=[N+](CC)CC)cc-3oc2c1 [Dye 16, Rhodamine B] | 1.4 | 1.3 | 1.4 | 5776.5 | 5570.5 | 6179.8 | 5579.3 | 5675.0 | 4088.7 | 3907.8 | 4226.6 | 4131.5 | 3987.2
5 | COC(=O)c1ccccc1-c1c2ccc(=N)cc-2oc2cc(N)ccc12.Cl [Dye 14, Rhodamine 123] | 1.1 | 1.1 | 1.1 | 2877.7 | 2874.7 | 2858.2 | 2900.3 | 2731.2 | 2596.6 | 2628.3 | 2616.4 | 2545.0 | 2491.2
